Experimental data reported in patent US20250120967A1, “TYROSINE KINASES INHIBITORS AND USES THEREOF” (GREAT NOVEL THERAPEUTICS BIOTECH & MEDICALS CORPORATION, priority 2023, published 2025).

Tests used:
[1] = target: BRAF V599E (Homo sapiens, UniProt P15056, V600E); assay: Tyrosine kinase inhibition assay; type: biochemical; settings: single concentration 1.0 μM, read-out: percent inhibition
Protocol: (§1) Tyrosine kinase inhibition assays were performed at ThermoFisher Life Technologies (Madison, WI, USA) using standard protocols (SelectScreen Biochemical Profiling Service, Thermo Fisher Scientific). ATP concentrations used were at the apparent Km. Test compounds were screened in 1% dimethylsulffoxide (DMSO) (final concentration) in the well. For 10-point titrations, 3-fold serial dilutions were conducted from the starting concentration of […]. All Peptide/Kinase Mixtures were diluted to a 2× working concentration in the appropriate Kinase Buffer. All ATP Solutions were diluted to a 4× working concentration in Kinase Buffer (50 mM HEPES pH 7.5, 0.01% BRIJ-35, 10 mM MgCl2, 1 mM EGTA). The apparent ATP Km was previously determined using a Z′-LYTE assay. The Development Reagent was diluted in Development Buffer.
(§2) The inhibition activities of compounds were determined in biochemical assays using single concentration (1.0 μM) measurements. The results were provided as percent inhibition values. A compound displaying a percent inhibition value of greater 80% was defined as a hit. 99 different tyrosine kinases were used.

[2] = target: PTK6 (Brk) (Homo sapiens, UniProt Q13882); assay: Tyrosine kinase inhibition assay; type: biochemical; settings: single concentration 1.0 μM, read-out: percent inhibition
Sequence of PTK6 (Brk) (Q13882 whole entry): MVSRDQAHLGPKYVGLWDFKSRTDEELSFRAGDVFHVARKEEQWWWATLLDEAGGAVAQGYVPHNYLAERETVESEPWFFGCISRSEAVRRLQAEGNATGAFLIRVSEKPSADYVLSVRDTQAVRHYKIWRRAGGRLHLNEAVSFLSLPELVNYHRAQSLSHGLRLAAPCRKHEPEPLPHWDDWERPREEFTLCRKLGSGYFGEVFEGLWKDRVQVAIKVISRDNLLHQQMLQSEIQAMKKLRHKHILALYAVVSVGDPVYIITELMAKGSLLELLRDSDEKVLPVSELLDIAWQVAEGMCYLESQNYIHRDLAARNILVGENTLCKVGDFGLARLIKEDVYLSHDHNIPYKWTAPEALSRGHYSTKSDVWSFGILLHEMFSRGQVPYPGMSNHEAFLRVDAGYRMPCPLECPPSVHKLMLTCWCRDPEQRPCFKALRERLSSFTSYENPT
Protocol: as §1, §2

[3] = tested on: 786-0; assay: NCI-60 screen (SRB); type: cell-based; settings: Homo sapiens; 786-0, Renal Cancer
Protocol: (§3) The human tumor cell lines of the cancer screening panel are grown in RPMI 1640 medium containing 5% fetal bovine serum and 2 mM L-glutamine. For a typical screening experiment, cells are inoculated into 96 well microtiter plates in 100 μL at plating densities ranging from 5,000 to 40,000 cells/well depending on the doubling time of individual cell lines. After cell inoculation, the microtiter plates are incubated at 37° C., 5% CO2, 95% air and 100% relative humidity for 24 h prior to addition of experimental drugs. After 24 h, two plates of each cell line are fixed in situ with TCA, to represent a measurement of the cell population for each cell line at the time of drug addition (Tz). Experimental drugs are solubilized in dimethyl sulfoxide at 400-fold the desired final maximum test concentration and stored frozen prior to use. At the time of drug addition, an aliquot of frozen concentrate is thawed and diluted to twice the desired final maximum test concentration with complete medium containing 50 µg/ml gentamicin. An additional four, 10-fold or M log serial dilutions are made to provide a total of five drug concentrations plus control. Aliquots of 100 μl of these different drug dilutions are added to the appropriate microtiter wells already containing 100 μl of medium, resulting in the required final drug concentrations. Following drug addition, the plates are incubated for an additional 48 h at 37° C., 5% CO2, 95% air, and 100% relative humidity. For adherent cells, the assay is terminated by the addition of cold TCA. Cells are fixed in situ by the gentle addition of 50 μl of cold 50% (w/v) TCA (final concentration, 10% TCA) and incubated for 60 minutes at 4° C. The supernatant is discarded, and the plates are washed five times with tap water and air dried. Sulforhodamine B (SRB) solution (100 l) at 0.4% (w/v) in 1% acetic acid is added to each well, and plates are incubated for 10 minutes at room temperature. After staining, unbound dye is removed by washing five times with 1% acetic acid and the plates are air dried. Bound stain is subsequently solubilized with 10 mM trizma base, and the absorbance is read on an automated plate reader at a wavelength of 515 nm. For suspension cells, the methodology is the same except that the assay is terminated by fixing settled cells at the bottom of the wells by gently adding 50 μl of 80% TCA (final concentration, 16% TCA).

[4] = tested on: BT-549; assay: NCI-60 screen (SRB); type: cell-based; settings: Homo sapiens; BT-549, Breast Cancer
Protocol: as §3

[5] = tested on: CAKI-1; assay: NCI-60 screen (SRB); type: cell-based; settings: Homo sapiens; CAKI-1, Renal Cancer
Protocol: as §3

[6] = tested on: DU-145; assay: NCI-60 screen (SRB); type: cell-based; settings: Homo sapiens; DU-145, Prostate Cancer
Protocol: as §3

[7] = tested on: HCT-15; assay: NCI-60 screen (SRB); type: cell-based; settings: Homo sapiens; HCT-15, Colon Cancer
Protocol: as §3

[8] = tested on: HS 578T; assay: NCI-60 screen (SRB); type: cell-based; settings: Homo sapiens, Breast Cancer
Protocol: as §3

[9] = tested on: IGROV1; assay: NCI-60 screen (SRB); type: cell-based; settings: Homo sapiens, IGROV-1; IGROV1, Ovarian Cancer
Protocol: as §3

[10] = tested on: MDA-MB-435; assay: NCI-60 screen (SRB); type: cell-based; settings: Homo sapiens; MDA-MB-435, Melanoma
Protocol: as §3

[11] = tested on: MOLT-4; assay: NCI-60 screen (SRB); type: cell-based; settings: Homo sapiens; MOLT-4, Leukemia
Protocol: as §3

[12] = tested on: NCI-H23; assay: NCI-60 screen (SRB); type: cell-based; settings: Homo sapiens; NCI-H23, Non-Small Cell Lung Cancer
Protocol: as §3

[13] = tested on: OVCAR-4; assay: NCI-60 screen (SRB); type: cell-based; settings: Homo sapiens; OVCAR-4, Ovarian Cancer
Protocol: as §3

[14] = tested on: OVCAR-8; assay: NCI-60 screen (SRB); type: cell-based; settings: Homo sapiens; OVCAR-8, Ovarian Cancer
Protocol: as §3

[15] = tested on: RXF 393; assay: NCI-60 screen (SRB); type: cell-based; settings: Homo sapiens; RXF 393, Renal Cancer
Protocol: as §3

[16] = tested on: SF-268; assay: NCI-60 screen (SRB); type: cell-based; settings: Homo sapiens; SF-268, CNS Cancer
Protocol: as §3

[17] = tested on: SF-295; assay: NCI-60 screen (SRB); type: cell-based; settings: Homo sapiens; SF-295, CNS Cancer
Protocol: as §3

[18] = tested on: SF-539; assay: NCI-60 screen (SRB); type: cell-based; settings: Homo sapiens; SF-539, CNS Cancer
Protocol: as §3

[19] = tested on: SK-MEL-2; assay: NCI-60 screen (SRB); type: cell-based; settings: Homo sapiens; SK-MEL-2, Melanoma
Protocol: as §3

[20] = tested on: SK-MEL-5; assay: NCI-60 screen (SRB); type: cell-based; settings: Homo sapiens; SK-MEL-5, Melanoma
Protocol: as §3

[21] = tested on: SN12C; assay: NCI-60 screen (SRB); type: cell-based; settings: Homo sapiens, Renal Cancer
Protocol: as §3

[22] = tested on: SNB-19; assay: NCI-60 screen (SRB); type: cell-based; settings: Homo sapiens; SNB-19, CNS Cancer
Protocol: as §3

Sequence of BRAF V599E (P15056 whole entry V600E): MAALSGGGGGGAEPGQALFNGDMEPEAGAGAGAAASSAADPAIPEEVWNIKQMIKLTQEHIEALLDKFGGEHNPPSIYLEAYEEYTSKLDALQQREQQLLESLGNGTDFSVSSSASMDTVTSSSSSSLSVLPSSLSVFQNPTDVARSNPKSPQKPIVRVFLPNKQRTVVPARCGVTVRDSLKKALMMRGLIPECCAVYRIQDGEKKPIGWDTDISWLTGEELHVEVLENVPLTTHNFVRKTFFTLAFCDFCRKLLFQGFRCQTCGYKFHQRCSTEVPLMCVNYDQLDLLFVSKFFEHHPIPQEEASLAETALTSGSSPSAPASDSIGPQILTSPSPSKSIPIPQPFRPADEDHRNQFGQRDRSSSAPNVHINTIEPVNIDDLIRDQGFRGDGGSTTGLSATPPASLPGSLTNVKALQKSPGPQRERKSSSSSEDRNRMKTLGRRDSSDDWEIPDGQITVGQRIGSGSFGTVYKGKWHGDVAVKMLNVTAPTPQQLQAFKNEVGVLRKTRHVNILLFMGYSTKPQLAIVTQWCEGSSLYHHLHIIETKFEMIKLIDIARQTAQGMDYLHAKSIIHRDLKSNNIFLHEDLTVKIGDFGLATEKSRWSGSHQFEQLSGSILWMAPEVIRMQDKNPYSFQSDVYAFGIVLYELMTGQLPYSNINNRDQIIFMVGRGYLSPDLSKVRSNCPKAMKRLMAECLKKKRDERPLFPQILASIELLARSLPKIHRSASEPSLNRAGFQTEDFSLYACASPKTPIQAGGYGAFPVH

Structure (SMILES) | inhibition at 1 µM [1] [%] | inhibition at 1 µM [2] [%] | GI50 [3] [nM] | GI50 [4] [nM] | GI50 [5] [nM] | GI50 [6] [nM] | GI50 [7] [nM] | GI50 [8] [nM] | GI50 [9] [nM] | GI50 [10] [nM] | GI50 [11] [nM] | GI50 [12] [nM] | GI50 [13] [nM] | GI50 [14] [nM] | GI50 [15] [nM] | GI50 [16] [nM] | GI50 [17] [nM] | GI50 [18] [nM] | GI50 [19] [nM] | GI50 [20] [nM] | further results
COc1cc2nccc(Oc3ccc(NC(=O)C4(C(=O)Nc5ccc(F)cc5)CC4)cc3)c2cc1OC [Cabozantinib, reference compound] | 24 | 103 |  |  |  |  |  |  |  |  |  |  |  |  |  |  |  |  |  |  | 
COc1cc2nccc(Oc3ccc(NC(=O)C4(NC(=O)c5ccc(F)cc5)CC4)cc3F)c2cc1OC [Cbo-02, N-(1-((4-((6,7-diMethoxyquinolin-4-yl)oxy)-3-fluorophenyl)carbamoyl)cyclopropyl)-4-fluorobenzamide] | 1 | 73 | 1980 | 1430 | 1540 | 3360 | 2980 | 2540 | 4480 | 1890 | 5040 | 2060 | 2380 | 3030 | 2050 | 4170 | 2310 | 1690 | 6150 | 4010 | GI50 [21]: 1210 nM; GI50 [22]: 3520 nM
COc1cc2nccc(Oc3ccc(NC(=O)C4(NC(=O)c5ccc(F)cc5)CC4)cc3F)c2cc1Oc1ccc(N)cc1F [Cbo-10] | 2 | 91 | > 100000 | 2410 | 276 | 1700 | 2410 | 5320 | 714 | 737 | 777 | 1040 | > 100000 | > 100000 | > 100000 | > 100000 | 304 | > 100000 | > 100000 | 6970 | GI50 [21]: 111 nM; GI50 [22]: > 100000 nM
COc1cc2nccc(Oc3ccc(NC(=O)C4(NC(=O)c5ccc(F)cc5)CC4)cc3F)c2cc1Oc1c(F)cc(N)cc1F [Cbo-14] | -3 | 94 |  |  |  |  |  |  |  |  |  |  |  |  |  |  |  |  |  |  | 
COc1cc2nccc(Oc3ccc(NC(=O)C4(C(=O)Nc5ccc(F)cc5)CC4)cc3F)c2cc1Oc1ccc(N)cc1F [Cbo-23] | 5 | 97 | 860 | 2270 | 192 | 429 | 315 | 148 | 264 | 363 | 1230 | 339 | 2580 | 2060 | 103 | 1350 | 66.9 | 179 | 1360 | 1380 | GI50 [21]: 199 nM; GI50 [22]: 3130 nM
